{
  "source": "patent US8372455B2",
  "about": "“Cosmetic composition with anti-free radical activity” (LVMH Recherche, priority 2006, dated 2013)",
  "test_system": "human keratinocytes (HaCaT)",
  "assay": "Antioxidizing power (free radical scavenging) in H2O2-treated keratinocytes with the DCFH-DA fluorescent probe",
  "format": "cell-based",
  "conditions": "24 h treatment, 0.05 mg/ml ebselen, extract of Emblica, extract of Edelweiss, 0.1 μg/ml tocotrienol, idebenone, N-acetylcysteine, N=6, FIG. 1",
  "from_the_text": "To do this, the inventors used an in vitro test on a model of human keratinocytes, which consisted in the in situ generation of free radicals in the presence and absence of substances with anti-free radical activity, and then in quantification, with the aid of a fluorescent probe of the type dichlorofluorescein diacetate (DCFH-DA), of the free radicals still present in the cells. This probe is well known to those skilled in the art and its use makes it possible to measure the amount of free radicals present as a function of the fluorescence signal emitted.\nThe antioxidizing power according to the invention, which corresponds in practice to the free radical scavenging power of each substance with anti-free radical activity or an association of such substances, is obtained using the following formula (A): antioxidizing power=([…])×100 (A) in which: Δ control=difference in fluorescence values between the control not treated with an active substance or an association of such substances, and the control treated with the reference oxidizing agent hydrogen peroxide (H2O2); Δ test=difference in fluorescence values between the control treated with an active substance or an association of active substances, and the control treated with H2O2.\nIn practice, the value of Δ control represents the situation where the oxidation is greatest. This value is to be considered as that of 100% oxidation. It is then possible, by taking the ratio ([…])×100, to determine the percentage oxidation in the presence of an active substance or an association of such active substances. The antioxidizing power can then be calculated as the difference from the maximum value of 100, corresponding to application of the above formula. […]\nThe fluorescence emitted is then directly proportional to the concentration of free radicals that has reacted in the medium.\nThus, in the presence of a substance with anti-free radical activity, the DCFH present in the medium encounters fewer free radicals and the value of the fluorescence signal emitted decreases as a consequence. […]",
  "data": [
    {"compound": "COC1=C(OC)C(=O)C(CCCCCCCCCCO)=C(C)C1=O", "note": "[idebenone, 2,3-dimethoxy-6-(10-hydroxydecyl)-5-methyl-1,4-benzo-quinone]", "values": [
      {"measurement": "protective power (antioxidizing power) of individual substances with anti-free radical activity", "value": "weakly protective"}
    ]},
    {"compound": "alpha-tocotrienol", "values": [
      {"measurement": "protective power (antioxidizing power) of individual substances with anti-free radical activity", "value": "relatively high protective power"}
    ]},
    {"compound": "CC(=O)N[C@@H](CS)C(=O)O", "note": "[N-acetylcysteine]", "values": [
      {"measurement": "protective power (antioxidizing power) of individual substances with anti-free radical activity", "value": "weakly protective"}
    ]}
  ]
}
